From PubChem BioAssay (NCI)
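Cells were grown in 96-well plates and exposed to each compound for 48 hours at five concentrations; endpoints were interpolated linearly between bracketing concentrations, or set to the highest concentration if not reached. GI50 is the concentration that inhibits growth by half. TGI marks complete inhibition of growth.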

What follows are compounds tested on RPMI-8226 leukemia (assay: DTP human tumour cell line panel, 48 h).

| SMILES | TGI [µM] | GI50 [µM] |
| --- | --- | --- |
| CC(C)C(=O)NC(=S)Nc1ccc([N+](=O)[O-])cc1C#N | > 100 |  |
| C/C(CC(=O)Nc1cc(Cl)c(Cl)cc1Cl)=N\NC(N)=O | > 100 |  |
| N#Cc1cc([N+](=O)[O-])ccc1NC(=O)C(=O)Nc1n[nH]c(N)n1 | > 100 |  |
| CS(=O)(=O)c1ccc([C@H]2O[C@@H](CO)C[C@]2(O)c2ccc(S(C)(=O)=O)cc2)cc1 | > 100 | > 100 |
| O=C(/C=C/c1c(O)ccc2ccccc12)c1cccc(O)c1 | > 100 |  |
| CC1=NN(C(=O)Nc2ccccc2)C(=O)C2CCC(=O)N12 (centres undefined) | > 100 |  |
| O=C(O)CNS(=O)(=O)c1ccc(NCc2ccccc2)cc1 | > 100 |  |
| O=C1c2cc(Cl)ccc2S(=O)(=O)c2c(NCCCNCCO)nc3ccccc3c21 | 3.28 | 0.888 |
| CC(C)(C)C1C=C(Sc2ccccc2)C(=O)O1 (centres undefined) | > 100 |  |
| CCC[CH2][Sn]1([CH2]CCC)[O]Cc2nc(C)ccc2[O]1 | 6.87 | 1.99 |
| Cc1ccc2c(c1)[n+]([O-])c(N)n[n+]2[O-] | > 100 |  |
| O=c1/c(=C/c2ccco2)sc2nc3ccccc3n12 | > 100 | > 100 |
| O=C1CCC2(c3ccc(F)cc3)Nc3cc(Cl)ccc3N12 (centres undefined) | > 100 |  |
| C/C(CC(=O)Nc1ccc(C)cc1C)=N/N=C(N)N | > 100 |  |

What follows are compounds tested on RXF 393 renal (assay: DTP human tumour cell line panel, 48 h).

| SMILES | TGI [µM] | GI50 [µM] |
| --- | --- | --- |
| NC(CCC(=O)NC(CSSCCCCS(=O)O)C(=O)NCC(=O)O)C(=O)O (centres undefined) | > 100 |  |
| COC12C=C(C)C(CC1)CC2C(=O)O (centres undefined) | > 100 |  |
| OCC(O)CC[CH2][Sn]([Br])([c]1ccccc1)[c]1ccccc1 (centres undefined) | > 100 | > 100 |
| CCc1ccc(/C=C\c2cc(OC)c(OC)c(OC)c2)cc1 | 0.0783 |  |
| O=c1c2cc([N+](=O)[O-])ccc2sc2ccsc12 | > 100 |  |
| C=CCCCCCCCCC(=O)[O][Sn]([CH2]CCC)([CH2]CCC)[CH2]CCC | 0.255 | 0.0991 |
| COc1ccc(C2=CC3CCC2C3)cc1 (centres undefined) | > 100 |  |
| COc1ccc(/C=C/CN(C)CCc2ccccc2)cc1OC | > 100 |  |
| NC(=O)C(=O)N/N=C(\CC1(O)C(=O)Nc2ccccc21)c1ccc2ccccc2c1 (centres undefined) | 41.2 |  |
| Cc1cc2c(cc1C)[n+](=O)c(C(=O)C/C(=N/NC(=O)CC#N)C(=O)Nc1ccccc1C(F)(F)F)c(C)n2[O-] | > 100 |  |
| COc1cc([N+](=O)[O-])cc2c3c(n(C)c12)[C@@]1(C)CCC2c4ccc(OCc5ccccc5)cc4CCC2C1C3 (some centres undefined) | > 100 | 40.8 |
| COC(=O)/C(=N/NC(=O)C[N+](C)(C)C)C(C(=O)OC)C(=O)C(=O)Nc1ccc(F)cc1 (centres undefined) | > 100 |  |
| O=C(c1ccccc1)c1nnc(C(=O)c2ccccc2)nn1 | 261 |  |
| Brc1cccc(C=NC23CC4CC(CC(C4)C2)C3)c1 | > 100 |  |
| Nc1nc(Cl)c2ncn(Cc3ccc(C45CC6CC(CC(C6)C4)C5)c(O)c3)c2n1 | 6.56 | 1.87 |
| CCC(C)c1c(Cl)nc(Cl)nc1Cl (centres undefined) | 20.7 |  |
| CCC[CH2][Sn]([CH2]CCC)([O]C(=O)c1cccnc1SC)[O]C(=O)c1cccnc1SC | 1.12 | 0.21 |
| O=C1O[C@@H](c2ccc3c(c2)OCO3)C2C(=O)O[C@@H](c3ccc4c(c3)OCO4)C12 (some centres undefined) | > 100 |  |
| O=C1CCC(=O)N2CCCCN12 | > 100 |  |
| CC(C)C(=O)NC(=S)Nc1ccc([N+](=O)[O-])cc1C#N | > 100 |  |
| C/C(CC(=O)Nc1cc(Cl)c(Cl)cc1Cl)=N\NC(N)=O | > 100 |  |
| N#Cc1cc([N+](=O)[O-])ccc1NC(=O)C(=O)Nc1n[nH]c(N)n1 | > 100 |  |
| CS(=O)(=O)c1ccc([C@H]2O[C@@H](CO)C[C@]2(O)c2ccc(S(C)(=O)=O)cc2)cc1 | > 100 | > 100 |
| O=C(/C=C/c1c(O)ccc2ccccc12)c1cccc(O)c1 | > 100 |  |
| CC1=NN(C(=O)Nc2ccccc2)C(=O)C2CCC(=O)N12 (centres undefined) | > 100 |  |
| O=C(O)CNS(=O)(=O)c1ccc(NCc2ccccc2)cc1 | > 100 |  |
| CCC[CH2][Sn]1([CH2]CCC)[O]Cc2nc(C)ccc2[O]1 | 19.9 | 8.15 |
| O=c1/c(=C/c2ccco2)sc2nc3ccccc3n12 | > 100 | > 10 |
